Structures can show the parent of a compound that is named as a salt. Where two headings read alike, the source gives them in different places.
Key:
[1] = tested on: p53 signaling (p53RE-bla HCT-116 cells); test: cells; settings: Homo sapiens
[2] = tested on: p53 signaling (p53RE-bla HCT-116 cells); test: cells; settings: Homo sapiens; remark: listed apart in the source
[3] = tested on: p53 signaling (p53RE-bla HCT-116 cells); settings: for EC50: read-out: p53 activation EC50, RLM
[4] = tested on: p53 signaling (p53RE-bla HCT-116 cells)
[5] = tested on: p53 signaling (p53RE-bla HCT-116 cells); test: cells; type: cell-based
[6] = tested on: p53 signaling (p53RE-bla HCT-116 cells); test: cells; type: cell-based; settings: Homo sapiens; for EC50: HCT-116; for Emax: HCT-116, read-out: efficacy
[7] = tested on: p53 signaling (p53RE-bla HCT-116 cells); test: cells; type: cell-based; settings: for Emax: HCT-116, read-out: efficacy
[8] = HCT-116, read-out: p53 activation efficacy
[9] = HCT-116, read-out: p53 activation EC50, HLM
[10] = HCT-116, read-out: p53 activation EC50, RLM
[11] = Homo sapiens, HCT-116, read-out: p53 activation EC50, No MS
[12] = read-out: p53 activation EC50, No MS
[13] = HCT-116, read-out: p53 activation EC50
[14] = HCT-116, read-out: p53 activation efficacy, primary screening

Row | SMILES | EC50 [6] | EC50 ([1]; HCT-116) | Emax ([1]; HCT-116, read-out: efficacy) | EC50 [2, 9] | Viability EC50, HLM (p53RE-bla HCT-116 cells) | Viability EC50, No MS (p53RE-bla HCT-116 cells) | Viability EC50, RLM (p53RE-bla HCT-116 cells) | Viability Efficacy, HLM (p53RE-bla HCT-116 cells) | Viability Efficacy, No MS (p53RE-bla HCT-116 cells) | Viability Efficacy, RLM (p53RE-bla HCT-116 cells) | p53 activation EC50, HLM [4] | p53 activation EC50, No MS [5] | p53 activation Efficacy, No MS [5] | EC50 ([7]; Homo sapiens, HCT-116, 0.5 h) | further results
1 | Nc1nc(Cl)nc2c1ncn2[C@H]1C[C@H](O)[C@@H](CO)O1 [Cladribine] | – | – | – | – | – | – | – | – | – | – | – | – | – | – | Emax [1, 8]: 45.7%; Emax [2, 8]: 47.1%; p53 activation efficacy [3]: 33.0267; Viability EC50 (p53RE-bla HCT-116 cells): inactive; Viability efficacy (p53RE-bla HCT-116 cells): inactive; p53 activation EC50 [4]: inactive; p53 activation efficacy [5]: 91.229; Emax ([5]; Homo sapiens, HCT-116, read-out: p53 activation efficacy): 81%; EC50 ([5]; read-out: p53 activation EC50): 0.665 µM
2 | CCOP(=S)(OCC)OP(=S)(OCC)OCC [Sulfotepp] | 16.6 µM | 14.3 µM | 37.4% | 21.6 µM | inactive | inactive | inactive | inactive | inactive | inactive | inactive | inactive | inactive | – | Emax [6]: 42.1%; EC50 [7]: Inactive
3 | Nc1nc(N)c2nc(-c3ccccc3)c(N)nc2n1 [Triamterene] | – | – | – | 16.4 µM | inactive | inactive | inactive | inactive | inactive | inactive | inactive | – | – | – | EC50 [1, 10]: 30.5 µM; EC50 [3]: 42.4 µM; EC50 [5, 11]: 28.7 µM; EC50 [5, 12]: 27.6 µM
4 | CNC(=O)Oc1ccccc1C(C)C [Isoprocarb] | – | – | – | 8.87 µM | inactive | inactive | inactive | inactive | inactive | inactive | inactive | inactive | inactive | – | EC50 [1, 10]: 12 µM; EC50 [3]: 12.5 µM
5 | CCOP(=O)(OCC)Oc1cc(C)nc(C(C)C)n1 [Diazoxon] | 13.9 µM | 6.57 µM | 43.6% | – | – | – | – | – | – | – | – | – | – | 3.83 µM | Emax [6]: 61.3%; EC50 [2, 13]: 20.2 µM; Emax [2, 8]: 39.6%; Viability EC50 (p53RE-bla HCT-116 cells): inactive; Viability efficacy (p53RE-bla HCT-116 cells): inactive; p53 activation EC50 [4]: inactive; Emax ([7]; Homo sapiens): 58.5%; p53 activation EC50 [5]: inactive; p53 activation efficacy [5]: inactive
6 | CNC(=O)Oc1ccc2c(c1)[C@]1(C)CCN(C)[C@@H]1N2C [Physostigmine] | – | – | – | 7.07 µM | inactive | inactive | inactive | inactive | inactive | inactive | inactive | inactive | inactive | – | p53 activation EC50, RLM [3]: inactive; p53 activation Efficacy, RLM [3]: inactive
7 | CNP(=O)(OC)Oc1ccc(C(C)(C)C)cc1Cl (stereo not drawn) [Crufomate] | 3.29 µM | 4.36 µM | 66.6% | 4.17 µM | inactive | inactive | inactive | inactive | inactive | inactive | inactive | inactive | inactive | 0.33 µM | –
8 | Nc1ccn([C@@H]2O[C@H](CO)[C@@H](O)[C@@H]2O)c(=O)n1 [Cytarabine hydrochloride] | – | – | – | – | – | – | – | – | – | – | – | – | – | – | EC50 [2, 13]: 3.49 µM; p53 activation EC50 [3]: inactive; p53 activation efficacy [3]: inactive; Viability EC50 (p53RE-bla HCT-116 cells): inactive; Viability efficacy (p53RE-bla HCT-116 cells): inactive; p53 activation EC50 [4]: inactive; p53 activation efficacy [5]: 74.252
9 | Oc1c(Cl)cc(Cl)c(Cl)c1Cl [2,3,4,6-Tetrachlorophenol] | – | – | – | 34.9 µM | inactive | inactive | inactive | inactive | inactive | inactive | inactive | – | 39.2893% | – | EC50 [1, 10]: 44.8 µM; p53 activation EC50, RLM [3]: inactive; EC50 [5, 11]: 17.7 µM; Emax ([5]; Homo sapiens, HCT-116, read-out: p53 activation Efficacy, No MS): 37.3%; EC50 [5, 12]: 34.6 µM
10 | COP(=S)(OC)SCN1C(=O)c2ccccc2C1=O [Phosmet] | 8.04 µM | 11.6 µM | 52.6% | 7.57 µM | inactive | inactive | inactive | inactive | inactive | inactive | inactive | inactive | inactive | 18.7 µM | Emax [6]: 49%; Emax ([7]; Homo sapiens): 48.2%
11 | CCCCSP(=O)(SCCCC)SCCCC [Tribufos] | 1.32 µM | 2.16 µM | 44.2% | – | – | – | – | – | – | – | – | – | – | 0.74 µM | EC50 ([1]; HCT-116, read-out: p53 activation EC50, cherry pick confirmation): 1.86 µM; Emax ([1]; HCT-116, read-out: p53 activation efficacy, cherry pick confirmation): 41.6%; Emax [1, 14]: 36%; Emax [2, 14]: 34.6%; Viability EC50, cherry pick confirmation (p53RE-bla HCT-116 cells): inactive; Viability EC50, primary screening (p53RE-bla HCT-116 cells): inactive; Viability efficacy, cherry pick confirmation (p53RE-bla HCT-116 cells): inactive; Viability efficacy, primary screening (p53RE-bla HCT-116 cells): inactive; p53 activation EC50, cherry pick confirmation [4]: inactive; p53 activation efficacy, cherry pick confirmation [4]: inactive; p53 activation EC50, cherry pick confirmation [5]: inactive; p53 activation EC50, primary screening [5]: inactive; p53 activation efficacy, cherry pick confirmation [5]: inactive; p53 activation efficacy, primary screening [5]: inactive
12 | COP(=S)(OC)Oc1ccc(S(N)(=O)=O)cc1 [Cythioate] | – | – | – | 3.59 µM | inactive | inactive | inactive | inactive | inactive | inactive | inactive | inactive | inactive | – | p53 activation EC50, RLM [3]: inactive; p53 activation Efficacy, RLM [3]: inactive
13 | CC(=O)NS(=O)(=O)c1ccc(N)cc1 [Sulfacetamide] | – | – | – | 44.2 µM | inactive | inactive | inactive | inactive | inactive | inactive | inactive | inactive | inactive | – | p53 activation EC50, RLM [3]: inactive; p53 activation Efficacy, RLM [3]: inactive
14 | CCOP(=S)(OCC)SCn1nnc2ccccc2c1=O [Azinphos-ethyl] | 2.16 µM | 2.17 µM | 47.5% | 1.98 µM | inactive | inactive | inactive | inactive | inactive | inactive | inactive | inactive | inactive | 22.8 µM | –

— publication PMC9151520 (Archives of Toxicology, 2022)
